Values quoted from earlier work, collected in PMC2109944 (The Journal of Cell Biology, 1977).

How the values were obtained:
human fibroblasts = conditions: 125I-epidermal growth factor
mouse melanoma cells = conditions: binding at low temperature, no prefixation
[1] = tested on: dissociated anterior pituitary cells

In the case of “epidermal growth factor: 125I-labelled epidermal growth factor, literature comparison”, the “internalization of hormone-bearing receptors” value (human fibroblasts) is given as “internalized within hours of the binding taking place”.

In the case of a-MSH, the “initial distribution of MSH receptor sites” value (mouse melanoma cells) is listed as “initially distributed at one pole of the cell over the Golgi area”.

In the case of “luteinizing hormone-releasing hormone [LHRH]”, the “time to LH release by exocytosis after stimulation” value [1] is given as at most 1 min and the “desensitization after short-term exposure” value ([1]; short-term exposure) is given as “refractory to further stimulation by the peptide”.
